For one data set, the system named is AO adenosine receptor. Nature of the data set: adenosine binding to refolded receptor by flow dialysis. Also on record: species or system shark Squalus acanthias. Conditions: refolded receptor in Alkyl(C16)phosphorylcholine/lipid micelles, after 48 hours at 4° C. The text has this:
The cDNA of one of the following receptors is, in-frame, inserted into the vector pGEX2a-c-His: AO adenosine receptor from the shark Squalus acanthias, human beta-2-adrenergic receptor, human neuropeptide YY1 receptor, human neuropeptide YY2 receptor, human melanocortine-1 receptor, human oxytocin receptor. This vector contains downstream of the Tac-promotor the sequence encoding glutathione-S-transferase and a subsequent thrombin cleavage site, followed by a polylinker sequence and, finally, six histidine codons and a stop codon.
2 ml of 3% sarcosyl are resuspended in PBS and stored on ice. 2 ml of inclusion bodies obtained in example 2 are added and mixed and treated for one minute with sonication. Immediately afterwards, 16 ml of 0.1% detergent stock solution in PBS are added.
Thereafter, a dialysis against 2 l of PBS is performed for four hours, as well as adding of 1 mM of GSH/0.1 mM GSSG from a 100× stock solution in water.
The solution is then stored for 48 hours at 4° C., whereupon, by flow dialysis, the adenosine binding was detectable, i.e. the receptor was present in native form.

A short description of data set [1]: cmc-value (critical micellar concentration) of detergents, own measurements of the inventors. The data set is classed as physicochemical. The following applies: reflects solubility of detergent in water. The source says:
The inventors of the submitted application have, namely, recognized that the low yield and the lacking reproducibility in the known methods is to be assigned to the second detergent. […] Further, it has to be taken care that the second detergent, in its final concentration, is above the critical micellar concentration. […] Above the cmc-value, the concentration of solved detergent-monomers is constant.
According to own measurements of the inventors, the cmc-values for alkyl-phosphorylcholine with an alkyl rest of C12, C13, C14 or C16 are 500, 150, 50 or 5 μM.

For the compound `Nc1ncnc2c1ncn2[C@@H]1O[C@H](CO)[C@@H](O)[C@H]1O` [adenosine], the adenosine binding result in the data set with AO adenosine receptor was “detectable”.

`CCCCCCCCCCCCCOP(=O)([O-])OCC[N+](C)(C)C` [alkyl-phosphorylcholine C13] came in with a cmc-value in data set [1] of 150 µM. In the case of `CCCCCCCCCCCCCCOP(=O)([O-])OCC[N+](C)(C)C` [alkyl-phosphorylcholine C14], the cmc-value in data set [1] is 50 µM.

For the compound `CCCCCCCCCCCCOP(=O)([O-])OCC[N+](C)(C)C` [alkyl-phosphorylcholine C12], the cmc-value in data set [1] was found to be 500 µM. Same read-out and setting: the figure for `CCCCCCCCCCCCCCCCOP(=O)([O-])OCC[N+](C)(C)C` [alkyl-phosphorylcholine C16] is 5 µM.

These data come from patent US6939951B1, “Refolding of membrane proteins” (M-Phasys GmbH, priority 1999, dated 2005).
